Laboratory results: patent US6506567B2, “Water-soluble flourescent intercalator compound” (Fuji Photo Film Co., Ltd., priority 2000, dated 2003)

Columns and labels:
Type in all cases: binding
[1] = tested on: calf thymus DNA (hybrid DNA); experiment: Detection of hybrid DNA fragment using fluorescent intercalator (fluorometry); details: intercalator 1 M; calf thymus DNA 100 μM; 5 mM phosphate buffer pH 7.0, sodium sulfate 5 mM; excitation 434 nm
Procedure: (§1) The fluorescent intercalator (1 M) prepared above was placed in an aqueous 5 mM phosphate buffer solution (pH 7.0) containing a calf thymus DNA (hybrid DNA, 100 μM) and sodium sulfate (5 mM). In the buffer solution, the fluorescent intercalator was intercalated into the hybrid DNA. The fluorescence emitted by the buffer solution containing the hybrid DNA having the intercalated fluorescent intercalator was fluorometrically measured in the wavelength region of 440 to 600 nm by exciting with a light of 434 nm.
(§2) The fluorescence emitted by the same buffer solution containing no calf thymus DNA (i.e., hybrid DNA) was also measured in the same manner.

[2] = tested on: calf thymus DNA (hybrid DNA); experiment: Rate of dissociation of intercalator from hybrid DNA (SDS addition, fluorescence over time); details: SDS final concentration 0.5 vol. %; same buffer solution as the fluorescence test
Procedure: (§3) To the buffer solution containing hybrid DNA and intercalator which was employed above was added an aqueous sodium dodecylsulfate (SDS) solution to give a final SDS concentration of 0.5 vol. %. After the SDS solution was added, variation of the fluorescence strength at a lapse of time was measured. From the variation data, the dissociation rate was determined. The dissociation rate was 0.02/sec.

[3] = tested on: single stranded DNA (calf thymus DNA heated to 90° C. for 20 min.); experiment: Rate of dissociation of intercalator from single stranded DNA; details: determined in the same manner as in Example 1 (SDS 0.5 vol. %)
Procedure: as §3
(§4) The same calf thymus DNA (hybrid DNA) as employed in Example 1 was heated to 90° C. for 20 min., to give a single stranded DNA.
(§5) The procedures of Example 1 were repeated using thus prepared single stranded DNA in place of the hybrid DNA.

[4] = tested on: single stranded DNA (calf thymus DNA heated to 90° C. for 20 min.); experiment: Fluorometry with single stranded DNA in place of hybrid DNA; details: procedures of Example 1, excitation 434 nm
Procedure: as §1, §2, §4, §5

Compound	fluorescence strength at 475 nm, buffer solution containing hybrid DNA relative to buffer solution containing no hybrid DNA [1]	dissociation rate from hybrid DNA [2]	dissociation rate from single stranded DNA [3]	fluorescence strength at 475 nm, buffer solution containing single stranded DNA relative to buffer solution containing no single stranded DNA [4]
COc1ccc2nc3cc(Cl)ccc3c(N)c2c1 [9-amino-6-chloro-2-methoxyacridine, reference compound]	approx. 6 times	19.0 s⁻¹		
N,N-bis{3-[4-(3-(6-chloro-9-imino-2-methoxyacridinyl)propyl)-1,4-diazacyclohexyl]propyl}naphthalenediimide	not high			
N-{3-[4-(3-( 6-chloro-9-imino-2-methoxyacridinyl)propyl)-1,4-diazacyclohexyl]propyl}-N′-{3-[4-(3-aminopropyl)-1,4-diazacyclohexyl]propyl}naphthalenediimide	approx. 30 times	0.02 s⁻¹	1.2 s⁻¹	approx. 16 times
